# Measurements taken from paper PMC4411898, “Impact of kinesin Eg5 inhibition by 3,4-dihydropyrimidin-2(1H)-one derivatives on various breast cancer cell features” (BMC Cancer, 2015).
# Assays:
# Format in all cases: cell-based, human
# MCF-7 cells [1] = assay: DAPI staining and transmission electron microscopy analysis; conditions: MCF-7, 4p 0.4 mM, 24 h (DAPI) or 48 h (TEM)
# Description: Aliquots of 8 × 10^5 MCF-7 cells were seeded in 12-well plates and ultra-structural analysis performed on controls or after 48 h of treatment with 4p (0.4 mM). Cells were washed twice with PBS and fixed overnight with glutaraldehyde (2.5%) at 4°C. Cells were subsequently washed with 0.1 M sodium cacodylate buffer (pH 7.2) and post-fixed in 1% osmium tetroxide and 0.8% potassium ferricyanide (10 mM CaCl2 in 0.2 M sodium cacodylate buffer). Samples were washed twice with 0.1 M sodium cacodylate buffer (pH 7.2) and in-block staining was performed for 16 h with 0.5% uranyl acetate at 4°C. Cells were dehydrated in a graded acetone series (50-100%) and embedded in Spurr resin.
# Cells were analyzed under a laser scanning confocal microscope. B, MCF-7 cells control or treated with 4p (0.4 mM) for 24 h had their nucleus stained with DAPI (left panels) or were processed and analyzed by Transmission Electron Microscopy after exposure to 4p (0.4 mM) for 48 h (right panels).
# MDA-MB-231 cells [2] = assay: CD44+/CD24- expression analysis, MDA-MB-231; conditions: 24 h; for CD44-/CD24- subpopulation, MDA-MB-231 (mean ± SEM): 4m 1.0 mM, 4bt 0.8 mM, 4p 0.4 mM, 4bc 1.0 mM, 4x 0.8 mM, monastrol 1.0 mM; for CD44-/CD24+ subpopulation, MDA-MB-231 (mean ± SEM) / CD44+/CD24+ subpopulation, MDA-MB-231 (mean ± SEM) / CD44+/CD24- subpopulation, MDA-MB-231 (mean ± SEM): concentrations as E32; for CD44+/CD24+ subpopulation, MDA-MB-231 (mean ± SEM): control 1.507 ± 0.47; for CD44+/CD24- subpopulation, MDA-MB-231 (mean ± SEM): untreated control 98.45 ± 0.47
# Description: For proliferation assays, cells were treated with IC50 concentrations of each compound. Adherent and floating cells were harvested at the same tube and pelleted by centrifugation at 300 g for 5 minutes and stained. Data acquisition of these two fractions put together was performed on a FACSCalibur flow cytometer using CellQuest software and analysed using the FloJo Software. Expression level of CD44 and CD24 in treated and control MCF-7 or MDA-MB-231 cells was measured after 24 h of treatment.
# MCF-7 cells [3] = assay: Cell cycle analysis (PI), MCF-7; conditions: 4m 1 mM, 4bt 0.8 mM, 4p 0.4 mM, 4bc 1.0 mM, 4x 0.8 mM
# Description: For proliferation assays, cells were treated with IC50 concentrations of each compound. Adherent and floating cells were harvested at the same tube and pelleted by centrifugation at 300 g for 5 minutes and stained. Data acquisition of these two fractions put together was performed on a FACSCalibur flow cytometer using CellQuest software and analysed using the FloJo Software. Control and DHPM-treated cells were harvested at 24, 48 and 72 h, resuspended in ice-cold PBS and fixed with 70% ethanol on ice. Cells were then washed with PBS, harvested and incubated with propidium iodide solution (0.1% Triton X-100, 10 μg/mL propidium iodide, 100 μg/mL DNase free RNase) for 10 min at 37°C. For analysis of cell populations in each cell cycle phase, the sub-G1 picks were excluded and the plots were generated by cell cycle platform data analysis by the FlowJo Software.
# MDA-MB-231 cells [4] = assay: CFSE proliferation assay, MDA-MB-231; conditions: 72 h, IC50 concentration of each compound
# Description: (§1) For proliferation assays, cells were treated with IC50 concentrations of each compound. Adherent and floating cells were harvested at the same tube and pelleted by centrifugation at 300 g for 5 minutes and stained. Data acquisition of these two fractions put together was performed on a FACSCalibur flow cytometer using CellQuest software and analysed using the FloJo Software. […] After adhesion, cells were treated with DHPMs or maintained in culture medium only (control) for 72 h. The percentage of proliferative cells was calculated based on the CFSE fluorescence profile analysis of the tested samples compared to that of the fixed undivided control cells (treated with 10 μM of colchicine) using the FlowJo software.
# MCF-7 cells [5] = assay: CFSE proliferation assay, MCF-7; conditions: 72 h, IC50 concentration of each compound
# Description: as §1
# HUVEC cells = assay: HUVEC tube formation assay; conditions: 11 h; 30 μM, IC50 or 300 μM, mainly 300 μM
# Description: The anti-angiogenic potential of DHPMs was tested using an in vitro Angiogenesis Assay Kit according to the manufacturer’s instructions. […] These plates were incubated for 11 hours at 37°C, in 5% CO2. Wells were subsequently photographed using an inverted light microscope at 20x magnification and tube formation analyzed. Seven fields per group of 3 independent experiments were quantified by pattern recognition according to manufacturer’s instructions.
# MCF-7 cells [6] = assay: α-tubulin immunostaining, spindle formation; conditions: for Monoastral Spindle (%) 24 h / Bipolar Spindle (%) 24 h / Mitotic spindle / microtubule organization (α-tubulin immunostaining): MCF-7, 24 h; for Monoastral Spindle (%) 24 h / Bipolar Spindle (%) 24 h / Bipolar Spindle (%) 48 h / Monoastral Spindle (%) 48 h: n = 300 dividing cells; for Monoastral Spindle (%) 24 h / Mitotic spindle / microtubule organization (α-tubulin immunostaining): 4m 1.0 mM, 4bt 0.8 mM, 4p 0.4 mM, 4bc 1.0 mM, 4x 0.8 mM; for Monoastral Spindle (%) 24 h: monastrol 0.1 mM; for Bipolar Spindle (%) 24 h / Bipolar Spindle (%) 48 h / Monoastral Spindle (%) 48 h: concentrations as E14; for Bipolar Spindle (%) 48 h / Monoastral Spindle (%) 48 h: MCF-7, 48 h
# Description: Aliquots of 7 × 10^4 MCF-7 cells were seeded onto 12 mm round glass coverslips placed in the base of each well of a 24-well plate. After adhesion, cells were treated for 24 and 48 h with the pre-selected compounds at their maximum non-cytotoxic concentrations to normal cells or incubated with culture medium only for the same duration (negative control). Cells were washed with PBS, fixed with 3.7% formaldehyde, permeabilized with 0.1% Triton X-100 and blocked in PBS supplemented with 1% skimmed milk, 2.5% bovine serum albumin (BSA) and 8% fetal bovine serum (FBS) at room temperature. Cells were incubated overnight with mouse anti-α-tubulin antibody (1:500) at 4°C, followed by incubation with a secondary antibody: Alexa Fluor 488 rabbit anti-mouse IgG (1:400), for 1 hour at 37°C. Nuclei were stained with 300 nM DAPI. The coverslips were mounted with ProLong Gold Antifade and specimens observed under a laser scanning confocal microscope.
# Table S1. Quantification of monopolar spindles occurred as a result of treatment with DHPM derivatives. MCF-7 control cells or cells treated for 24 or 48 h with 4m (1 mM), […]
# antibody. The percentage of dividing cells showing presence of monoastral and bipolar spinles formation determined (n = 300).
# Experimental Group Monoastral Spindle (%) Bipolar Spindle (%)
# MDA-MB-231 cells [7] = assay: MTT cell viability assay, MDA-MB-231; conditions: for IC50: 72 h treatment, MTT, read-out: IC50 MDA-MB-231; for Effect on cell viability, MDA-MB-231: all concentrations tested 100 μM – 1.00 mM, 72 h
# Description: Absorbance readings were measured by a spectrophotometer. Cell viability was normalized to control (vehicle only).
Compound,Cell phenotype by DAPI staining and TEM (MCF-7 cells [1]),"CD44-/CD24- subpopulation, MDA-MB-231 (mean ± SEM) (MDA-MB-231 cells [2]) [%]","CD44-/CD24+ subpopulation, MDA-MB-231 (mean ± SEM) (MDA-MB-231 cells [2]) [%]","CD44+/CD24+ subpopulation, MDA-MB-231 (mean ± SEM) (MDA-MB-231 cells [2]) [%]","CD44+/CD24- subpopulation, MDA-MB-231 (mean ± SEM) (MDA-MB-231 cells [2]) [%]","Cell cycle effect, MCF-7, 48 h (MCF-7 cells [3])","Inhibition of cell proliferation, MDA-MB-231 (MDA-MB-231 cells [4])","Inhibition of cell proliferation, MCF-7 (MCF-7 cells [5])",HUVEC tube formation (pattern recognition / morphology) (HUVEC cells),Monoastral Spindle (%) 24 h (MCF-7 cells [6]) [%],Bipolar Spindle (%) 24 h (MCF-7 cells [6]) [%],Mitotic spindle / microtubule organization (α-tubulin immunostaining) (MCF-7 cells [6]),Bipolar Spindle (%) 48 h (MCF-7 cells [6]) [%],Monoastral Spindle (%) 48 h (MCF-7 cells [6]) [%],IC50 (MDA-MB-231 cells [7]) [µM],"Effect on cell viability, MDA-MB-231 (MDA-MB-231 cells [7])"
CCOC(=O)C1=C(C)NC(=S)NC1c1ccccc1O (stereo not shown) [Compound 4p],mitotic catastrophe phenotype,0.02 ± 0.009,0.003 ± 0.003,5.507 ± 1.13,94.45 ± 1.13,cell cycle arrest at G2/M,Approximately 50%,Approximately 50%,more pronounced anti-angiogenic morphological aspect,0,0,disruption of the microtubules,0,0,68.4,significant decrease in cell viability
CC(=O)C1=C(C)NC(=O)NC1c1ccccc1[N+](=O)[O-] (stereo not shown) [Compound 4x],,0.01 ± 0.003,0.020 ± 0.0200,6.08 ± 2.10,93.88 ± 2.12,cell cycle arrest at G2/M,,,,50.80,49.20,caused monoastral spindle formation,12.01,87.99,237,significant decrease in cell viability
